Values after ≈ are worked out from the molar mass of the structure shown.
Settings: for aqueous solubility: pH 6.8

SMILES | intrinsic clearance, human liver microsomes [mL/min/kg] | intrinsic clearance, rat liver microsomes [mL/min/kg] | aqueous solubility [µg/mL] | MDR1-MDCK efflux ratio
Cc1ccccc1NC(=O)CN1C(=O)CCC1=O | ≤ 4.74 | ≤ 10.7 | 36.3 (≈ 147 µM) | 
O=C(NCc1ccc(F)cc1)C1CCN(C(=O)/C=C/c2ccc(F)cc2)CC1 | ≤ 4.74 | 106 | 3.03 (≈ 7.88 µM) | 6.14
CCCn1nccc1NC(=O)c1c(C)noc1C | ≤ 4.74 | ≤ 10.7 | 31.5 (≈ 127 µM) | 1.59
CC(Sc1nc2c(cnn2-c2ccccc2)c(=O)[nH]1)C(N)=O (centres undefined) |  |  | 2.15 (≈ 6.82 µM) | 
O=C1CCC(=O)N1Cc1nc(C23CC4CC(CC(C4)C2)C3)cs1 | 105 | 1400 | 42.8 (≈ 129 µM) | 
O=C1Oc2nc3cc4c(cc3cc2CN1CCN1CCOCC1)OCCO4 | ≤ 4.74 | ≤ 10.7 | 80.5 (≈ 217 µM) | 3.87
CCn1ncc(CN2CCC(c3nc(N(C)C)ncc3-c3ccc(OC)cc3)CC2)c1C | 227 | 831 | 52.6 (≈ 121 µM) | 15.6
CN1CCN(c2ccc(NC(=O)c3ccccc3Cl)nc2)CC1 | ≤ 4.74 | 349 | 45.8 (≈ 138 µM) | 0.523
Cc1cccc(C)c1OCC(=O)N(C)C1(C#N)CCC1 | 13.3 | 472 | 56.1 (≈ 206 µM) | 0.621
CCCCNc1nc2c(cc1C#N)CCC2 | 226 | 2310 |  | 
Cc1nc(-c2ccccc2)nc(O)c1C | 19.3 | 54.3 |  | 0.634
C[C@]1(O)CN(C(=O)Cn2cnc3ccccc3c2=O)CC[C@@H]1Oc1ccccc1 | 7.14 | 44.7 |  | 11.7
CCn1c(C(=O)N(C2CC2)C2CC2)cc2c3c(ncn3C)c(Nc3cc(C)n(C)n3)nc21 | 11.3 | 20.1 |  | 21
O=C(Cc1cccc(I)c1)N1CC(CO)C1 | ≤ 4.74 | ≤ 10.7 | 42.1 (≈ 127 µM) | 1.59
N#CCN(C(=O)c1cn(-c2ccc(Br)cc2)cn1)C1CC1 | ≤ 4.74 | 57.3 | 65.3 (≈ 189 µM) | 1.04
COCC(=O)Nc1ccc(NC(=O)Cc2ccc(C(F)(F)F)cc2)cc1 | 32.8 | 88.9 |  | 1.08
O=c1cc2c(n[nH]1)-c1cnc(N3CCCC3)nc1CC2 | 6.66 | 103 |  | 0.748
Fc1ccccc1-c1noc(-c2ccc(NCCc3cnccn3)nc2)n1 | 10.2 | 749 | 5.51 (≈ 15.2 µM) | 0.142
CCC(C)(C)N1CCN(C(=O)NCCc2cc(C)no2)CC1 | ≤ 4.74 | 274 |  | 7.18
CN(C)CCn1ccc2cc(NC(=O)c3ccc(=O)[nH]n3)ccc21 |  |  | 53.5 (≈ 164 µM) | 
Oc1ccccc1NCc1ccccn1 | 24.9 | 600 | 44.1 (≈ 220 µM) | 
O=C(NCC#CCN1CCc2ccccc2C1)NCc1ccc(F)cc1 | 79.7 | 545 | 33.5 (≈ 95.2 µM) | 4
CN(CCn1cnc(C#N)c1C#N)c1ccccc1 | 52.4 | 1060 |  | 0.634
